From patent publication US20220008368A1, “METHODS AND COMPOSITIONS RELATED TO TARGETING FFAR2 AND ILC3 POPULATIONS FOR THE TREATMENT OF A GASTROINTESTINAL DISEASE” (PRESIDENT AND FELLOWS OF HARVARD COLLEGE, priority 2018, published 2022)
Read-outs that look alike come from different tables or passages of the source. *1 amine or outer side, *2 acyl side, *3 side chain or, on linkers, in order; H or OH if unused. Where a SMILES comes first, the peptide text is derived from it. Bridges are numbered along the chain shown (N, C = ends). [ ]: non-standard residue; d: D form. X1 = CC(=O)NC(C(=O)OC(C(C)C)C(N[*:1])C(=O)[*:2])C(O)C(C)C; PhLac = O=C(O)[CH](O)Cc1ccccc1; NMeT = CN[CH](C(=O)O)[CH](C)O; NMeA = CN[CH](C)C(=O)O; NMeDha = C=C(NC)C(=O)O

Tests used:
sorted colonic ILC3s [1] = assay: Flow analysis of intracellular signaling (AKT, p38, ERK, STAT3 phosphorylation) in sorted colonic ILC3s from WT mice; assay type: cell-based, mouse
Protocol: For analysis of intracellular signaling in ILC3s (Ibiza et al., 2016), sorted colonic ILC3s were rested for 2 hours in RPMI at 37° C.
AKT and STAT3 inhibition. Sorted colonic ILC3s were rested for 2 hours in RPMI at 37° C. For analysis of STAT3 phosphorylation, cells were incubated with […] AKT inhibitor VIII (VIII, Sigma-Aldrich) (Ibiza et al., 2016) or vehicle as a control (DMSO) for 1h at 37° C. before stimulation with the Ffar2 agonist (10 μM/ml dissolved in water, pH 7.4). To determine Il22 expression levels, cells were incubated with 10 μM AKT inhibitor VIII, 10 μM STAT3 inhibitor VI (S3I, Sigma-Aldrich) (Ibiza et al., 2016) or vehicle during overnight stimulation with Ffar2 agonist at 37° C.

sorted colonic ILC3s [2] = assay: Il22 mRNA expression in sorted colonic ILC3s (qRT-PCR); assay type: cell-based, mouse; details: for Il22 expression upon Ffar2 activation with the Ffar2 agonist: overnight with Ffar2 agonist, AKT inhibitor VIII 10 μM, STAT3 inhibitor 10 μM
Protocol: RNA isolation and real-time quantitative PCR (qRT-PCR). For analysis of sorted colonic immune cell populations including ILC subsets and colonic ILC3s, RNA was isolated using the RNeasy Micro Kit (Qiagen) or RNeasy Mini Kit (Qiagen) according to the manufacturer's protocol. For analysis of colonic epithelial cells or colon tissues, cells or tissues were homogenized directly into Qiazol (Qiagen), and RNA was isolated via chloroform extraction. The quantity and quality of RNA was determined using a NanoDrop (Thermo Scientific). […] Quantitative real-time PCR was carried out on cDNA with SYBR FAST Universal qPCR Master Mix (KAPA Biosystems). Reactions were run on a Stratagene Mx3005P machine (Agilent Technologies). The expression of individual genes was normalized to housekeeping gene β-actin expression on the base of the ΔΔCt algorithm. Some results are shown as a fold induction relative to expression levels in colonic epithelial cells as indicated. AKT and STAT3 inhibition.

sorted colonic ILC3s [3] = assay: In vitro BrdU incorporation in sorted colonic ILC3s; assay type: cell-based, mouse; details: acetate 10 mM or propionate 10 mM with BrdU 10 μM overnight
colonic ILC3s [4] = details: WT mice, drinking water 2 weeks; acetate 150 mM, propionate 150 mM, butyrate 100 mM; control sodium chloride
Protocol: SCFA intervention. […] WT mice received sodium chloride (150 mM). […] Drinking water solutions were freshly prepared and changed every 5 days.
Isolation of colonic epithelial cells and immune cells. Colons were dissected and fat and blood vessels were removed. Colons were cut open longitudinally and washed with PBS to remove feces and debris, then incubated in PBS containing 5 mM EDTA, 0.145 mg/ml Dithiothreitol (Sigma-Aldrich), 3% FBS and 1% penicillin/streptomycin (P/S) for 15 min at 37° C. for 2 cycles. After being vortexed for 15s, the dissociated cells were collected as colonic epithelial cells. For the isolation of lamina propria immune cells, the remaining colonic tissues were washed twice in PBS, cut into 1 mm in length, and digested in RPMI 1640 containing 0.5 mg/ml collagenase D (Roche), 0.01 mg/ml DNase I (Roche), and 0.5 mg/ml Dispase (Stem Cell Technologies) for 30 min at 37° C. on a shaking platform. The digested tissues were passed through 70 μm strainers after being vigorously vortexed for 15s. Then, colonic immune cells were collected and resuspended in PBS with 1% fetal bovine serum and 1% penicillin-streptomycin solution (Corning) for flow cytometry analysis, FACSAria sorting or RNA extraction.
Flow cytometry. Single-cell suspensions were stained with a combination of fluorescently conjugated monoclonal antibodies. CD16/32 antibody (93; BioLegend) was used to block the non-specific binding to Fc receptors before surface staining. Cells were stained with Fixable yellow dead cell stain kit (Invitrogen) for the detection of live/dead cells before staining of the cell surface. All antibodies were purchased from BioLegend unless otherwise specified. For surface marker staining, antibodies to the following mouse proteins were used: CD45 (30-F11), CD90.2 (53-2.1), lineage markers (17A2/RB6-8C5/RA3-6B2/Ter-119/M1/70), CCR6 (29-21.17), NKp46 (29A1.4), CD11b (M1/70), CD11c (N418), Gr-1 (RB6-8C5), MHC class II (M5/114.15.2), NK1.1 (PK136), KLRG1 (2F1), CD3c (145-2C11), CD4 (RM4.5). […]

colonic ILC3s [5] = assay: Colonic RORγt+ ILC3s in germ-free WT mice fed Ffar2 agonist or sodium acetate; assay type: in vivo, mouse; details: Ffar2 agonist 700 μM or sodium acetate 150 mM in drinking water, 1-2 weeks
Protocol: GPR43 agonist. […] SCFA intervention. […] WT mice received sodium chloride (150 mM). […] Flow cytometry.

Ffar2 = molecular target: T1, Ffar2 (Homo sapiens, UniProt O15552); details: cited from earlier work; for agonism of Ffar2 among SCFAs: compared among acetate, propionate and butyrate
T1 sequence (O15552 1-330): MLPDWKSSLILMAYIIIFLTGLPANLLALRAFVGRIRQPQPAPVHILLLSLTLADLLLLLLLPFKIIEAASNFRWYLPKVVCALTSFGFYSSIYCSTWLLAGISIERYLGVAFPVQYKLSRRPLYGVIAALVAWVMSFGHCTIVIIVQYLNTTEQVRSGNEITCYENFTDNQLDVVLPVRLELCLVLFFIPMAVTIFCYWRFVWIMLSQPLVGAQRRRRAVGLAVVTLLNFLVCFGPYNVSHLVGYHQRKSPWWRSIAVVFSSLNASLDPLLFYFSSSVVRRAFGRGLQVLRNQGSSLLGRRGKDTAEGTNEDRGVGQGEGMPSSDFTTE

Peyer's patch ILC3s = details: cited from earlier work
C57BL/6 Rag2−/− mice = assay: T cell-transfer colitis model; assay type: in vivo, mouse; details: Ffar2 agonist or sodium propionate for 6 weeks
Protocol: GPR43 agonist. […] SCFA intervention. […] WT mice received sodium chloride (150 mM). […] Histology. Colons were cleaned with PBS prior to fixation in 4% PFA and then processed by routine paraffin embedding, sectioning and H&E staining. Colitis scores were determined by a pathologist (J. N. G.), who was blinded to the experimental parameters. Each of the four histologic parameters was scored as absent (0), mild (1), moderate (2), or severe (3): mononuclear cell infiltration, polymorphonuclear cell infiltration, epithelial hyperplasia, and epithelial injury. The scores for the parameters were summed to generate the cumulative histologic colitis score as previously described^60, 61. For the DSS-induced model, cumulative histologic scores were also quantified as to the percentage involvement by the disease process: […] (3) 30-50%; (4) >50% and presented as histologic colitis scores^62 as follows: (cumulative score*involvement)+cumulative score. T cell-transfer colitis model. Splenic T cells (CD3^+CD4^+CD25^-CD45RB^hi) were sorted from C57BL/6J WT mice and injected i.p. into C57BL/6J Rag2^-/- mice (5×10^5 cells/mouse). […] Mice were monitored weekly for weight loss and morbidity for 6-8 weeks as per the protocol's experimental endpoint guidelines and sacrificed at the terminal time point of 6 weeks post injection of splenic […].

[6] = WT ILC3s, propionate 10 mM, 1 h

Structure (SMILES): O=c1[nH]c2ccccc2n1C1CCN(Cc2ccc(-c3nc4cc5[nH]cnc5cc4nc3-c3ccccc3)cc2)CC1 [AKT inhibitor (VIII)]
- STAT3 activation upon Ffar2 activation with the Ffar2 agonist (sorted colonic ILC3s [1]; AKT inhibitor VIII 1 h before stimulation with Ffar2 agonist): impaired
- Il22 expression upon Ffar2 activation with the Ffar2 agonist (sorted colonic ILC3s [2]; PTX 500 ng/mL, YM-254890 1 mM): decreased 11-22, but to a lesser extent

Structure (SMILES): Cc1ccc(S(=O)(=O)OCC(=O)Nc2ccc(C(=O)O)c(O)c2)cc1 [STAT3 inhibitor (S31)]
- Il22 expression upon Ffar2 activation with the Ffar2 agonist (sorted colonic ILC3s [2]; PTX 500 ng/mL, YM-254890 1 mM): impaired
- Il22 expression upon Ffar2 activation with the Ffar2 agonist (sorted colonic ILC3s [2]; PTX 500 ng/mL, YM-254890 1 mM, listed as STAT3 inhibitor): decreased

Structure (SMILES): C=C1C(=O)NC(C)C(=O)N(C)C(C)C(=O)NC(C(OC(=O)C(NC(C)=O)C(O)C(C)C)C(C)C)C(=O)N(C)C(C(C)OC)C(=O)OC(C)C(NC(C)=O)C(=O)OC(Cc2ccccc2)C(=O)N1C (stereo not drawn) [YM-254890] (Ac-T[PhLac][NMeDha]A[NMeA][X1][NMeT](Me); ester 1-C; configuration not given here)
- Il22 expression upon Ffar2 activation with the Ffar2 agonist (sorted colonic ILC3s [2]; PTX 500 ng/mL, YM-254890 1 mM): abolished
- Il22 expression upon activation with propionate (sorted colonic ILC3s [2]; propionate 10 mM overnight, PTX 500 ng/mL, YM-254890 1 mM, ERK inhibitor 10 μM): decreased IL22 transcripts to a lesser extent

Structure (SMILES): CC(=O)[O-].[Na+] [sodium acetate]
- percentage of BrdU+ ILC3s (sorted colonic ILC3s [3]): increased
- colonic ILC3 frequency and number (colonic ILC3s [4]): increased
- colonic ILC3 numbers (colonic ILC3s [5]): increased
- Il22 mRNA expression in sorted ILC3s cultured with ligand (sorted colonic ILC3s [2]): did not alter
- agonism of Ffar2 among SCFAs (Ffar2): far more potent activators of Ffar2

Structure (SMILES): CCCC(=O)[O-].[Na+] [sodium butyrate]
- colonic ILC3 frequency and number (colonic ILC3s [4]): did not change
- effect on Peyer's patch ILC3s (Peyer's patch ILC3s): suppress

Structure (SMILES): CCC(=O)[O-].[Na+] [sodium propionate]
- percentage of BrdU+ ILC3s (sorted colonic ILC3s [3]): did not
- phosphorylation of AKT, p38, ERK and STAT3 (sorted colonic ILC3s [1]; WT ILC3s, propionate 10 mM, 30 min): did not induce
- pSTAT3+ ILC3s (sorted colonic ILC3s [1]; [6]): did increase
- share of ILC3s that were pSTAT3+ (sorted colonic ILC3s [1]; [6]): 1%-1.5%
- percentage of pERK+ ILC3s (sorted colonic ILC3s [1]; WT ILC3s, propionate 10 mM, 1 h compared with shorter time): comparable
- pERK level (sorted colonic ILC3s [1]; WT ILC3s, propionate 10 mM, 1 h versus 30 min): did induce a higher pERK
- colonic ILC3 frequency and number (colonic ILC3s [4]): increased
- Il22 mRNA expression in sorted ILC3s cultured with ligand (sorted colonic ILC3s [2]; acetate 10 mM, propionate 10 mM or Ffar2 agonist 10 mM): to a lesser extent, propionate increased
- colitis (histologic colitis score) (C57BL/6 Rag2−/− mice): ameliorated colitis similar to the effect of sodium propionate
- potency for Ffar2 compared with the synthetic Ffar2 agonist (Ffar2): lower potency
- agonism of Ffar2 among SCFAs (Ffar2): far more potent activators of Ffar2
